Consider 4 compounds from PMC3914206.

Format in all cases: binding
Assay [1] concerns the target T1, panel of 442 kinases (Homo sapiens, UniProt P31751).
T1 construct: purchased KINOMEscan
Particulars: Compound Concentration 10 µM. The text has this:
(§1) We assessed the selectivity of members of this scaffold using the KINOMEscan methodology across a near comprehensive panel of 442 kinases [[18,27]].

Assay [2] has as its target T2, panel of 442 kinases (Homo sapiens, UniProt Q86UX6).
T2 construct: purchased KINOMEscan
Particulars: kinase YANK3; compound concentration 10 µM.
Description: as §1

Assay [3] deals with T3, panel of 442 kinases (Homo sapiens, UniProt P00533, G719S).
T3 construct: purchased KINOMEscan
T3 sequence (P00533 25-1210 G719S): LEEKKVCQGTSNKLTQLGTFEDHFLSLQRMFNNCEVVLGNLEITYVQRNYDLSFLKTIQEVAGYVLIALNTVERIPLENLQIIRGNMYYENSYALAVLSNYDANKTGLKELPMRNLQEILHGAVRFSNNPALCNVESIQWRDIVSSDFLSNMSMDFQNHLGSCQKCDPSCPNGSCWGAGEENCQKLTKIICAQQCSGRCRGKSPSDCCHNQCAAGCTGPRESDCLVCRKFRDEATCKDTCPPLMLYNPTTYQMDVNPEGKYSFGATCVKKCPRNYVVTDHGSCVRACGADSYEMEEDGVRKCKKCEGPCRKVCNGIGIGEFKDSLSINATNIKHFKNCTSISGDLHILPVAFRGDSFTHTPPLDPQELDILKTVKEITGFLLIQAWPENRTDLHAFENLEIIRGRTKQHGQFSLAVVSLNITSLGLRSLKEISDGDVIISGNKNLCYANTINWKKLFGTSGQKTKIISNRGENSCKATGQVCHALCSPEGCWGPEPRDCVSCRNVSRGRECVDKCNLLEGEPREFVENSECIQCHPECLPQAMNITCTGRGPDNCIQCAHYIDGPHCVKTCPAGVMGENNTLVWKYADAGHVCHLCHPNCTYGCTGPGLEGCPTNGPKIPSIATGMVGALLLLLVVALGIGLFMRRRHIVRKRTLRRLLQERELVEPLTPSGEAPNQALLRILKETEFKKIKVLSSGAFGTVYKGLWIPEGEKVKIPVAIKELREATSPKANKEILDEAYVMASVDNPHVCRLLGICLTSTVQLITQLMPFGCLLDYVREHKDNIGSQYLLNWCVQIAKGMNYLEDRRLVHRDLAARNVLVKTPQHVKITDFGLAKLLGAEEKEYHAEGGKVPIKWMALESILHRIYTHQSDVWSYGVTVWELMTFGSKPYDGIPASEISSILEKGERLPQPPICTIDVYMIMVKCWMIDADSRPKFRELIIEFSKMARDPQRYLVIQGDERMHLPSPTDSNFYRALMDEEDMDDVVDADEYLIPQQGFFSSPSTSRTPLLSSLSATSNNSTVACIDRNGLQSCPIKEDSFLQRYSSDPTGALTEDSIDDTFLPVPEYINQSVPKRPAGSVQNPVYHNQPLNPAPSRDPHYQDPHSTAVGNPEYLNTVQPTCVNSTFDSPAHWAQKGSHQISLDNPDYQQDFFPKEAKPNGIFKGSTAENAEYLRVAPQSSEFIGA
Particulars: Compound Concentration 10 µM.
Description: as §1

Assay [4] deals with T4, panel of 442 kinases (Homo sapiens, UniProt P24941).
T4 construct: purchased KINOMEscan
Particulars: Compound Concentration 10 µM.
Description: as §1

T2 sequence (Q86UX6 whole entry): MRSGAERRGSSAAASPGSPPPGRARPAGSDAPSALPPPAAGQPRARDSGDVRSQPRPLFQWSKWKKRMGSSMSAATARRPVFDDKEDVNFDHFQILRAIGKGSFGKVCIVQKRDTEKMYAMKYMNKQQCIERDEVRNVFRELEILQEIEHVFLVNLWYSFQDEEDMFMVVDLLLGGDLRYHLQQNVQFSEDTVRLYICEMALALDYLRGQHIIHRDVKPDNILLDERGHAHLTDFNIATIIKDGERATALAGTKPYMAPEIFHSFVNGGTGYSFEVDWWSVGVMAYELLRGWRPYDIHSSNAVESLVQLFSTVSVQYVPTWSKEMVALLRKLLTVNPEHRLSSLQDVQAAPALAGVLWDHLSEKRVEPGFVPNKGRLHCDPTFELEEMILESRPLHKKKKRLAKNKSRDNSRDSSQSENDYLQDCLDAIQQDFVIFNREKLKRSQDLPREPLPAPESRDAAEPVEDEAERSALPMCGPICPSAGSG
T1 sequence (P31751 whole entry): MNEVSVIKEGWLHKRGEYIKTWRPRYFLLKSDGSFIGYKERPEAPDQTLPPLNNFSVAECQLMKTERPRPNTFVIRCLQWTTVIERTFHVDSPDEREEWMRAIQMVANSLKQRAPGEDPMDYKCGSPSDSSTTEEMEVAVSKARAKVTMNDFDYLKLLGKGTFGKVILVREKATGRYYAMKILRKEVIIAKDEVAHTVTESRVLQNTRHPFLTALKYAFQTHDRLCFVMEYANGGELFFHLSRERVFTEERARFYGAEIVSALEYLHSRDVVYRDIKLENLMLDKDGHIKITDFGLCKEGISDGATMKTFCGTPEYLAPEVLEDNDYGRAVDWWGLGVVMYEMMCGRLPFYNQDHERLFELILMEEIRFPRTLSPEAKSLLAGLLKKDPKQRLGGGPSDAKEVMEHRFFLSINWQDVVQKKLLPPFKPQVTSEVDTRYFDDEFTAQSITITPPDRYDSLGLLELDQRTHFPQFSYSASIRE

On to `CCOc1cc(C(=O)N2CCC(N3CCN(C)CC3)CC2)ccc1Nc1ncc2c(n1)N(C1CCCC1)c1ccccc1C(=O)N2C` [Compound 26], for which, in assay [1], the “KINOMEscan: AKT2” value is 100. Further, the “% Ctrl, YANK3” value in assay [2] turned out to be 100 % Ctrl. In addition, the “KINOMEscan: EGFR(G719S)” value in assay [3] was 96. The “KINOMEscan: CDK2” value in assay [4] came to 100.

Take `COc1cc(C(=O)N2CCC(N3CCN(C)CC3)CC2)ccc1Nc1ncc2c(n1)N1CCc3cccc(c31)C(=O)N2C` [Compound 24]: in assay [2], the “% Ctrl, YANK3” value is 100 % Ctrl. Further, the “KINOMEscan: EGFR(G719S)” value in assay [3] amounted to 81. The “KINOMEscan: CDK2” value in assay [4] is 95.

Consider `COc1cc(C(=O)N2CCC(N3CCN(C)CC3)CC2)ccc1Nc1ncc2c(n1)N(C)c1ccccc1C(=O)N2C` [15 (LRRK2-IN-1)], for which the “KINOMEscan: AKT2” value in assay [1] is 100. In assay [2], the “% Ctrl, YANK3” value amounted to 100 % Ctrl. In addition, the “KINOMEscan: EGFR(G719S)” value in assay [3] is 86. Besides, the “KINOMEscan: CDK2” value in assay [4] is 100.

As for `COc1cc(C(=O)N2CCC(N3CCN(C)CC3)CC2)ccc1Nc1ncc2c(n1)N(C1CCCC1)c1ccccc1C(=O)N2C` [Compound 25, 11-cyclopentyl-2-((2-methoxy-4-(4-(4-methylpiperazin-1-yl)piperidine-1-carbonyl)phenyl)amino)-5-methyl-5H-benzo[e]pyrimido[5,4-b][1,4]diazepin-6(11H)-one], in assay [1], the “KINOMEscan: AKT2” value is given as 100. Further, the “% Ctrl, YANK3” value in assay [2] is 100 % Ctrl. Also, the “KINOMEscan: EGFR(G719S)” value in assay [3] was found to be 86. Also, the “KINOMEscan: CDK2” value in assay [4] stood at 96.
